From ChEMBL document CHEMBL1157876, “Isomeric tropane alkaloids from the aerial parts of Schizanthus tricolor” (J Nat Prod, 2010)

Key:
[1] = system: Plasmodium falciparum; experiment: Antimalarial activity against chloroquine and pyrimethamine-resistant Plasmodium falciparum K1 infected in human erythrocytes after 72 hrs by spectrophotometry based Malstat method; assay type: functional, organism-based; conditions: K1, 72 h
[2] = Cytotoxicity against human MRC5 SV2 cells after 72 hrs by resazurin dye reduction assay; assay type: cell-based

C=C(CC(=O)O[C@@H]1C[C@H]2C[C@H](OC(=O)C=C(C)C)[C@H](C1)N2C)C(=O)OC
IC50 [1]: 22.8 µM
CC50 at 72 h [2]: > 64 µM

C/C=C(\C)C(=O)O[C@H]1C[C@@H]2C[C@@H](OC(=O)/C=C(\C)C(=O)OC)C[C@@H]1N2C
IC50 [1]: 36 µM
CC50 at 72 h [2]: > 64 µM

C/C=C(/C)C(=O)O[C@H]1C[C@@H]2C[C@@H](OC(=O)/C=C(\C)C(=O)OC)C[C@@H]1N2C
IC50 [1]: 24.8 µM
CC50 at 72 h [2]: > 64 µM

CCN(CC)Cc1cc(Nc2ccnc3cc(Cl)ccc23)ccc1O
IC50 [1]: < 0.25 µM

COC(=O)/C(C)=C/C(=O)O[C@@H]1C[C@H]2C[C@H](OC(=O)C=C(C)C)[C@H](C1)N2C
IC50 [1]: 63.5 µM
